Experimental data from patent US9849130B2 (KamTek, Inc., priority 2014, dated 2017).
Entries after “also recorded” stand apart in the source; their conditions may differ. Read-outs that look alike come from different tables or passages of the source.

Tests used:
CD strains = experiment: In vitro activity of CFM + additional antimicrobial agent against CD (MIC alone/combination, FIC, ΣFIC); assay type: cell-based, Clostridium difficile; conditions: for MIC: Clostridioides difficile, read-out: MIC alone
Escherichia coli strains = experiment: MIC by microdilution in Mueller-Hinton broth against Escherichia coli strains; assay type: cell-based; conditions: for MIC: Escherichia coli, Mueller-Hinton broth, read-out: MIC
[1] = Test 1, CD strain VPI 10463, CFM + VAN
[2] = Test 9, CD strain NR32885, CFM + VAN
[3] = Test 11, CD strain NR32885, CFM + VAN
[4] = Test 12, CD strain NR32885, CFM + MET
[5] = Test 18, CD strain NR32888, CFM + VAN
[6] = Test 19, CD strain NR32888, CFM + MET
[7] = Test 20, CD strain NR32888, CFM + VAN
[8] = Test 21, CD strain NR32888, CFM + MET
[9] = Test 2, CD strain VPI 10463, CFM + VAN
[10] = Test 3, CD strain VPI 10463, CFM + MET
[11] = Test 4, CD strain VPI 10463, CFM + MET
[12] = Test 5, CD strain NR32889, CFM + VAN
[13] = Test 6, CD strain NR32890, CFM + VAN
[14] = Test 7, CD strain NR32885, CFM + VAN
[15] = Test 8, CD strain NR32885, CFM + MET
[16] = Test 10, CD strain NR32885, CFM + MET
[17] = Test 13, CD strain BAA1805 (BI/NAP1/027), CFM + VAN
[18] = Test 14, CD strain BAA1805 (BI/NAP1/027), CFM + MET
[19] = Test 15, CD strain BAA1805 (BI/NAP1/027), CFM + MET
[20] = Test 16, CD strain BAA1805 (BI/NAP1/027), CFM + VAN
[21] = Test 17, CD strain BAA1805 (BI/NAP1/027), CFM + MET

CC(C)N=c1cc2n(-c3ccc(Cl)cc3)c3ccccc3nc-2cc1Nc1ccc(Cl)cc1 [CFM, 3-(p-chloroanilino)-10-(p-chlorophenyl)-2,10-dihydro-2-iso-propyliminophenazine]
MIC (CD strains; BAA1805, Test 13, CD strain BAA1805 (BI/NAP1/027), CFM + VAN): 0.25 µg/mL | MIC (CD strains; BAA1805, Test 14, CD strain BAA1805 (BI/NAP1/027), CFM + MET): 0.25 µg/mL | MIC (CD strains; BAA1805, Test 15, CD strain BAA1805 (BI/NAP1/027), CFM + MET): 0.25 µg/mL | MIC (CD strains; BAA1805, Test 16, CD strain BAA1805 (BI/NAP1/027), CFM + VAN): 0.25 µg/mL | MIC (CD strains; BAA1805, Test 17, CD strain BAA1805 (BI/NAP1/027), CFM + MET): 0.25 µg/mL | MIC (CD strains; [1]): 0.25 µg/mL | MIC (CD strains; [2]): 0.25 µg/mL | MIC (CD strains; [3]): 0.25 µg/mL | MIC (CD strains; [4]): 0.25 µg/mL | MIC (CD strains; [5]): 0.25 µg/mL | MIC (CD strains; [6]): 0.25 µg/mL | MIC (CD strains; [7]): 0.25 µg/mL | MIC (CD strains; [8]): 0.25 µg/mL | MIC (CD strains): 0.125 µg/mL | FIC (CD strains; [1]): 0.124 | MIC combination (CD strains; [1]): 0.031 µg/mL | ΣFIC (CD strains; Test 1, CD strain VPI 10463, sum for combination CFM + VAN): 0.374 | FIC (CD strains; [9]): 0.0312 | MIC combination (CD strains; [9]): 0.0039 µg/mL | ΣFIC (CD strains; Test 2, CD strain VPI 10463, sum for combination CFM + VAN): 0.281 | FIC (CD strains; [10]): 0.5 | MIC alone (CD strains; [10]): 0.125 µg/mL | MIC combination (CD strains; [10]): 0.062 µg/mL | ΣFIC (CD strains; Test 3, CD strain VPI 10463, sum for combination CFM + MET): 1 | FIC (CD strains; [11]): 0.5 | MIC alone (CD strains; [11]): 0.125 µg/mL | MIC combination (CD strains; [11]): 0.062 µg/mL | ΣFIC (CD strains; Test 4, CD strain VPI 10463, sum for combination CFM + MET): 1 | FIC (CD strains; [12]): 1 | MIC alone (CD strains; [12]): 0.125 µg/mL | MIC combination (CD strains; [12]): 0.125 µg/mL | ΣFIC (CD strains; Test 5, CD strain NR32889, sum for combination CFM + VAN): 2 | FIC (CD strains; [13]): 0.25 | MIC alone (CD strains; [13]): 0.125 µg/mL | MIC combination (CD strains; [13]): 0.031 µg/mL | ΣFIC (CD strains; Test 6, CD strain NR32890, sum for combination CFM + VAN): 0.75 | FIC (CD strains; [14]): 0.5 | MIC alone (CD strains; [14]): 0.125 µg/mL | MIC combination (CD strains; [14]): 0.062 µg/mL | ΣFIC (CD strains; Test 7, CD strain NR32885, sum for combination CFM + VAN): 1 | FIC (CD strains; [15]): 0.25 | MIC alone (CD strains; [15]): 0.125 µg/mL | MIC combination (CD strains; [15]): 0.031 µg/mL | ΣFIC (CD strains; Test 8, CD strain NR32885, sum for combination CFM + MET): 0.375 | FIC (CD strains; [2]): 0.25 | MIC combination (CD strains; [2]): 0.062 µg/mL | ΣFIC (CD strains; Test 9, CD strain NR32885, sum for combination CFM + VAN): 0.5 | FIC (CD strains; [16]): 0.031 | MIC alone (CD strains; [16]): 0.125 µg/mL | MIC combination (CD strains; [16]): 0.0039 µg/mL | ΣFIC (CD strains; Test 10, CD strain NR32885, sum for combination CFM + MET): 0.281 | FIC (CD strains; [3]): 0.25 | MIC combination (CD strains; [3]): 0.062 µg/mL | ΣFIC (CD strains; Test 11, CD strain NR32885, sum for combination CFM + VAN): 0.5 | FIC (CD strains; [4]): 0.031 | MIC combination (CD strains; [4]): 0.0078 µg/mL | ΣFIC (CD strains; Test 12, CD strain NR32885, sum for combination CFM + MET): 0.281 | FIC (CD strains; [17]): 0.25 | MIC combination (CD strains; [17]): 0.062 µg/mL | ΣFIC (CD strains; Test 13, CD strain BAA1805 (BI/NAP1/027), sum for combination CFM + VAN): 0.312 | FIC (CD strains; [18]): 0.015 | MIC combination (CD strains; [18]): 0.0039 µg/mL | ΣFIC (CD strains; Test 14, CD strain BAA1805 (BI/NAP1/027), sum for combination CFM + MET): 0.031 | FIC (CD strains; [19]): 0.06 | MIC combination (CD strains; [19]): 0.015 µg/mL | ΣFIC (CD strains; Test 15, CD strain BAA1805 (BI/NAP1/027), sum for combination CFM + MET): 0.185 | FIC (CD strains; [20]): 0.25 | MIC combination (CD strains; [20]): 0.062 µg/mL | ΣFIC (CD strains; Test 16, CD strain BAA1805 (BI/NAP1/027), sum for combination CFM + VAN): 0.5 | FIC (CD strains; [21]): 0.031 | MIC combination (CD strains; [21]): 0.0078 µg/mL | ΣFIC (CD strains; Test 17, CD strain BAA1805 (BI/NAP1/027), sum for combination CFM + MET): 0.156 | FIC (CD strains; [5]): 0.5 | MIC combination (CD strains; [5]): 0.125 µg/mL | ΣFIC (CD strains; Test 18, CD strain NR32888, sum for combination CFM + VAN): 1 | FIC (CD strains; [6]): 0.062 | MIC combination (CD strains; [6]): 0.015 µg/mL | ΣFIC (CD strains; Test 19, CD strain NR32888, sum for combination CFM + MET): 0.125 | FIC (CD strains; [7]): 0.25 | MIC combination (CD strains; [7]): 0.062 µg/mL | ΣFIC (CD strains; Test 20, CD strain NR32888, sum for combination CFM + VAN): 0.75 | FIC (CD strains; [8]): 0.031 | MIC combination (CD strains; [8]): 0.0078 µg/mL | ΣFIC (CD strains; Test 21, CD strain NR32888, sum for combination CFM + MET): 0.28 | activity against E. coli (in words) (Escherichia coli strains): relatively inactive; also recorded: not active | MIC (Escherichia coli strains; Escherichia coli strain NR 6): > 32 µg/mL | MIC (Escherichia coli strains; Escherichia coli strain NR 8): > 32 µg/mL | MIC (Escherichia coli strains; Escherichia coli strain NR 96): > 32 µg/mL | MIC (Escherichia coli strains; Escherichia coli strain NR 104): > 32 µg/mL | MIC (Escherichia coli strains; Escherichia coli strain NR 17626): > 32 µg/mL | MIC (Escherichia coli strains; Escherichia coli strain NR 17627): > 32 µg/mL | MIC (Escherichia coli strains; Escherichia coli strain NR 17633): > 32 µg/mL
